Test results reported in article PMC8308524, “Interaction between DNA, Albumin and Apo-Transferrin and Iridium(III) Complexes with Phosphines Derived from Fluoroquinolones as a Potent Anticancer Drug” (Pharmaceuticals, 2021).

Assays:
CT DNA = assay: Competitive fluorescence quenching of CT DNA-DAPI (minor groove binding); parameters: species or system calf; unit not given here; conditions: extended Stern–Volmer plot
Excerpt: It is well known that the cytotoxic activity of various drugs (e.g., fluoroquinolones) depends on interaction with DNA [1]. […] Several well-known DNA binding dyes with well-established binding modes were used: ethidium bromide (EB; intercalation), 4′,6-diamidino-2-phenylindole (DAPI; binding to a minor groove), and methyl green (MG; binding to a major groove). The compounds that can bind to DNA more strongly than the above-mentioned binding dyes (EB, DAPI, or MG) reduce the DNA-binding dye emission due to the replacement of dye. The emission spectra of the CT DNA-binding dye complex were measured at different concentrations of the investigated compounds, (Figure 2; Supplementary Materials, Figures S1–S4).
Furthermore, we conducted a similar competitive experiment using DAPI Figure 3, and Figures S2 and S3 in Supplementary Materials. […] The displacement of bound DAPI from its binding site on CT DNA is much stronger than when EB is used. In order to confirm the quenching mechanism, the fluorescence quenching was analyzed according to Stern–Volmer equations (Figure 3A) and KDSV (dynamic quenching constant) values, which are presented in Figure 3B. Based on Stern–Volmer plots (Figure 3A), the strength of CT DNA-DAPI fluorescence quenching formed the following order: IrPSf > IrPCp > IrPNr > IrPLm.
The stock solution was prepared by dissolving of the calf thymus (CT DNA) in 50 mM phosphate buffer saline (PBS) (pH = 7.4). The CT DNA concentration (C = 5 × 10^−5 M) was determined by a UV spectrophotometer using the molar absorption coefficient […] at 258 nm. The stock solution was stored at 4 °C and used for > 6 days. The luminescent complexes of CT DNA with EB (ethidium bromide), DAPI (4′,6-diamidyno−2-fenyloindol), and MG (methyl green) were prepared by mixing the substrates in the equimolar ratio (CCT DNA-fluorescent dye = 5 × 10^−5 M; 50 mM of the phosphate buffer at pH = 7.4). The solution of the CT DNA fluorescent dye system was titrated in different molar ratios (0.5, 1, 2, 3, 4, 5, 6, 7, 8, 9, and 10) with the tested substances (dissolved in DMSO) and incubated for 1 h for each portion of the investigated compounds. The final concentration of DMSO was 2% in each sample. Photoluminescence measurements were recorded at 298 K using a Cary Eclipse Fluorescence Spectrophotometer. The excitation wavelength was 510 nm for the CT DNA-EB complex, 358 nm for the CT DNA-DAPI complex, and 633 nm for the CT DNA-MG complex. The Inner Filter Effect was considered and the corrected intensity of the emission band was calculated using Equation (1), where: Abs—absorbance at analyzed emission wavelength; If—uncorrected emission intensity. (1) Icor=If 2.303 Abs/ 1−10^Abs
(§1) In order to confirm the quenching mechanism, the fluorescence quenching was analyzed according to Stern–Volmer in Equation (2):(2) I0/I=1+KsvC where I0 and I are the fluorescence intensities in the absence and presence of the quencher, respectively, KSV is the Stern–Volmer quenching constant, and [C] is the concentration of the quencher, respectively.
In same case, it was clearly observed that both static and dynamic quenching occur simultaneously where a nonlinear curve is observed. In such cases, extended Stern–Volmer plots can be used to describe the new situation with the following Equation (3). (3) 1−(I/I0)/C=KDSV(I/I0) +V where I0 and I are the fluorescence intensities in the absence and presence of the quencher, respectively; KDSV is the dynamic quenching constant; [C] is the concentration of the quencher, and V is the volume of the sphere of action. We drew the plots of ([1 − (I/I0)]/[C]) versus I/I0. KDSV is the slope of the plot and the static quenching constant V is calculated from the intercept of the plot.

apo-transferrin (apo-Tf) = molecular target: T1, apo-transferrin (apo-Tf) (Homo sapiens, UniProt P02787); assay: Fluorescence quenching of apo-transferrin; format: binding; conditions: apo-Tf 3.6 × 10^−6 M, 50 mM phosphate buffer pH 7.4, excitation 295 nm, Stern–Volmer
T1 construct: purchased Sigma–Aldrich (Hamburg, Germany)
Experimental: A solution of apo-Tf was titrated with increasing concentrations of all the tested compounds, and the fluorescence intensity of apo-Tf was monitored spectrophotometrically (Figure 9A; Supplementary Materials, Figures S6 and S7). At the same time, Ksv values were determined from Stern–Volmer plots (Figure 9B, Table 4).
as §1
Apo-transferrin (apo-Tf) solution was prepared by dissolving the solid protein in 50 mM of phosphate-buffered saline (PBS) (pH = 7.4), C (apo-Tf) ≈ 3,6 × 10^− 6 M. The solution of the Tf was titrated in different molar ratios (0.5, 1, 2, 3, 4, 5, 6, 7, 8, 9, and 10) by IrPCp, IrPNr, IrPSf, IrPLm with corresponding phosphines (dissolved in DMSO) and incubated for 1h with any portion from each of the investigated compounds. The final volume of DMSO was 2% in each sample. The excitation wavelength was equal to 295 nm. The spectra of circular dichroism were recorded using a spectropolarimeter JASCO J-715 (CD and MCD).

[1] = molecular target: T2, human serum albumin (HSA) (Homo sapiens, UniProt P02768); assay: Fluorescence quenching of human serum albumin; format: binding; conditions: 50 mM phosphate buffer pH 7.4, excitation 295 nm, Stern–Volmer
T2 construct: purchased Sigma–Aldrich (Hamburg, Germany)
Excerpt: Interest in studying the interaction of metal ions and their compounds with blood plasma proteins, especially with serum albumin (HSA), the most abundant protein in plasma involved in the transport of drugs through the bloodstream, is increasing. This molecule has two main binding sites: site I is located in subdomain IIA and site II is located in subdomain IIIA. […] Changes in the appearance of the Trp-214 residue emission band in HSA, in the presence of the tested compounds, may indicate changes in the protein’s conformation, the association of its subunits or denaturation, or the binding of the compound to protein [53, 56].
as §1
Human serum albumin (HSA) was dissolved in 50 mM phosphate buffer saline (PBS) (pH = 7.4), C (HSA) ≈ 5 × 10^− 5 M. The solution of the HSA was titrated at different molar ratios (0.5, 1, 2, 3, 4, 5, 6, 7, 8, 9 and 10) by IrPCp, IrPNr, IrPSf, IrPLm and phosphine ligands (dissolved in DMSO) and incubated for 1 h with any portion from each of the investigated compounds. The final volume of DMSO was 2% in each sample. Afterward, substances were incubated with HSA solution for 1h at room temperature. The excitation wavelength was equal to 295 nm.

pBR322 plasmid DNA = assay: DNA strand break analysis by agarose gel electrophoresis; format: biochemical; conditions: pBR322, 10 to 500 μM, 1 h, 4 h, 24 h
Excerpt: Since intercalation usually results in relatively large changes in the double helix structure, we assumed that all iridium(III) complexes cause severe DNA cleavage. The binding ability of iridium(III) complexes with another DNA model—pBR322 plasmid DNA, was studied by gel electrophoresis as a target. The degree of plasmid degradation, which is naturally present in a superhelical form (form I), to determine the ability of the compounds to induce single- and/or double-strand damage of the DNA was checked. This process can lead to the formation of the relaxed/nicked (form II) and linear (form III) forms. The degree of DNA degradation was determined in a wide range of the tested compounds’ concentrations (from 10 to 500 μM) at three different incubation times: 1 h, 4 h, and 24 h (Figure 4E1–E3).
It was proven by cyclic voltamperometry, and fluorescence spectroscopy that the studied herein Ir(III) compounds can generate high levels of ROS, therefore the effect of additional H2O2 on the overall ROS production and the associated DNA damages caused by this radical pathway. Furthermore, to confirm the generation of particular types of ROS involved in plasmid degradation, the experiment using DMSO (effective scavenger of ^•OH), SOD (effective scavenger of O2^•−), [50] and NaN3 (effective scavenger of ^1O2) was performed. In order to exclude the effect of the hydrogen peroxide influence on plasmid DNA degradation, we performed an additional gel electrophoresis for H2O2 in different concentrations (Supplementary Materials, Figure S8).
The ability of IrPCp, IrPNr, IrPSf, IrPLm, and phosphine ligands to induce single- or double-strand breaks in plasmid DNA was tested with the pBR322 plasmid (C = 0.5 mg/mL). All compounds were dissolved in DMF; the concentration was kept constant (10% by volume) in the final solution with/without hydrogen peroxide (H2O2, C = 50 μM), superoxide dismutase (SOD, C = 0.62 μM), dimethyl sulfoxide (DMSO, C = 1.4 mM), or sodium azide (NaN3, C = 40 mM). The reaction was also monitored after the addition of various groove binders: methyl green (MG, C = 10 mg/mL), and 4′,6-diamidino-2-phenylindole (DAPI, C = 5 mg/mL). After incubation for 1 h at 37°C, reaction mixtures (20 μL) were mixed with 3 μL of loading buffer (bromophenol blue in 30% glycerol) and loaded on 1% agarose gels, containing EB, in TBE buffer (90 Mm Tris–borate, […], pH = 8.0). Gel electrophoresis was performed at a constant voltage of 100V (4 Vcm-1) for 60 min. The gel was photographed and processed with a Digital Imaging System (Syngen Biotech, Wroclaw, Poland).

T2 sequence (P02768 25-609): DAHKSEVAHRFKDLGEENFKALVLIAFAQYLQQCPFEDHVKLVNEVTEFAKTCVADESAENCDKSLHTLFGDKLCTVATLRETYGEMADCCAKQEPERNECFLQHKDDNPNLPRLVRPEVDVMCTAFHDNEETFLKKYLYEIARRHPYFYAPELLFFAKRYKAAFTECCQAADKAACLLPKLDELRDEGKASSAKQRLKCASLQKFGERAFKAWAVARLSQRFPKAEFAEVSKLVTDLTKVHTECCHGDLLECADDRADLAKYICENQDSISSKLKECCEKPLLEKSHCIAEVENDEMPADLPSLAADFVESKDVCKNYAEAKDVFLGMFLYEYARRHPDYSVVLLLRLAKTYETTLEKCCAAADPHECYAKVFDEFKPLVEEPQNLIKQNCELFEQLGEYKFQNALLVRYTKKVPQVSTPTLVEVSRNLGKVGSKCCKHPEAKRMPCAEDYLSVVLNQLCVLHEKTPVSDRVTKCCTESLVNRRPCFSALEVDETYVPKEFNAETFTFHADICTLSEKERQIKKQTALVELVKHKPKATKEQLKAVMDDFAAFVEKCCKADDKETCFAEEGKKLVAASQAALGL
T1 sequence (P02787 20-698): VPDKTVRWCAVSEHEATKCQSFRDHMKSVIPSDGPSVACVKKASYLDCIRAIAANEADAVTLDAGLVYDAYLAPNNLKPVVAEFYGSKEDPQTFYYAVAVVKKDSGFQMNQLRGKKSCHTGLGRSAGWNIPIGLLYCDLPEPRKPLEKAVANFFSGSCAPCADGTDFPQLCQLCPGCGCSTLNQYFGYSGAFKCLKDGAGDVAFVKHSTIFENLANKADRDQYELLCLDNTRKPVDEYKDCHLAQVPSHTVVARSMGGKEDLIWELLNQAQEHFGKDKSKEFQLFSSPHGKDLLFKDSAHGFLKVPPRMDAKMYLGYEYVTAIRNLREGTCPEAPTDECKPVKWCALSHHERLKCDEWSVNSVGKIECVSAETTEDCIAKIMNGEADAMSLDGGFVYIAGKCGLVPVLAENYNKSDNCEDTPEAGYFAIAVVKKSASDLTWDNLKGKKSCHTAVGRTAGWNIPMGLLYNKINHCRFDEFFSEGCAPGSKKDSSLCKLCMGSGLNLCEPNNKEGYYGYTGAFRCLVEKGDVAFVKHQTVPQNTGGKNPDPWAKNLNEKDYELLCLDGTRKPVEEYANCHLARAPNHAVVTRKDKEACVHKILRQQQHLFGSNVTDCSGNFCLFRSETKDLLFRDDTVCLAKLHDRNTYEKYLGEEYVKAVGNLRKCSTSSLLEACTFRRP

In the case of `CCn1cc(C(=O)O)c(=O)c2cc(F)c(N3CCN(C[P+](c4ccccc4)(c4ccccc4)[Ir]([Cl])[Cl])C(C)C3)c(F)c21.Cc1c(C)c(C)[c-](C)c1C` (racemic) [IrPLm, Ir(η^5-Cp*)Cl2PLm], the “KDSV (dynamic quenching constant)” value (CT DNA) was 2.19×10^3, the “V (static quenching constant, volume of the sphere of action)” value (CT DNA) was 1.45×10^3 and the “Ksv (apo-Tf fluorescence quenching)” value (apo-transferrin (apo-Tf)) was 19900 M⁻¹. For the same molecule, the “Ksv (HSA fluorescence quenching)” value [1] was 5.06e+06 M⁻¹ and the “double-strand plasmid damage (formation of linear form III)” value (from here on “double-strand plasmid damage”) (pBR322 plasmid DNA) was “not presumably capable of double-strand plasmid damage”.
For `Cc1c(C)c(C)[c-](C)c1C.O=C(O)c1cn(C2CC2)c2cc(N3CCN(C[P+](c4ccccc4)(c4ccccc4)[Ir]([Cl])[Cl])CC3)c(F)cc2c1=O` [IrPCp, Ir(η^5-Cp*)Cl2PCp], the “KDSV (dynamic quenching constant)” value (CT DNA) was 3.21×10^3, the “V (static quenching constant, volume of the sphere of action)” value (CT DNA) was 2.21×10^3 and the “Ksv (apo-Tf fluorescence quenching)” value (apo-transferrin (apo-Tf)) was 21800 M⁻¹. The “Ksv (HSA fluorescence quenching)” value [1] was 2.08e+06 M⁻¹ and the “double-strand plasmid damage” value (pBR322 plasmid DNA) was “not presumably capable of double-strand plasmid damage”.
In the case of `CCn1cc(C(=O)O)c(=O)c2cc(F)c(N3CCN(C[P+](c4ccccc4)(c4ccccc4)[Ir]([Cl])[Cl])CC3)cc21.Cc1c(C)c(C)[c-](C)c1C` [IrPNr, Ir(η^5-Cp*)Cl2PNr], the “KDSV (dynamic quenching constant)” value (CT DNA) was 1.72×10^3, the “V (static quenching constant, volume of the sphere of action)” value (CT DNA) was 1.13×10^3 and the “Ksv (apo-Tf fluorescence quenching)” value (apo-transferrin (apo-Tf)) was 20200 M⁻¹. The “Ksv (HSA fluorescence quenching)” value [1] was 698000 M⁻¹ and the “double-strand plasmid damage” value (pBR322 plasmid DNA) was “not presumably capable of double-strand plasmid damage”.
`CC1CN(c2c(F)c(N)c3c(=O)c(C(=O)O)cn(C4CC4)c3c2F)CC(C)N1C[P+](c1ccccc1)(c1ccccc1)[Ir]([Cl])[Cl].Cc1c(C)c(C)[c-](C)c1C` (stereo not drawn) [IrPSf, Ir(η^5-Cp*)Cl2PSf] was tested, and the “KDSV (dynamic quenching constant)” value (CT DNA) was 3.62×10^3, the “V (static quenching constant, volume of the sphere of action)” value (CT DNA) was 2.42×10^3 and the “Ksv (apo-Tf fluorescence quenching)” value (apo-transferrin (apo-Tf)) was 13200 M⁻¹. The “Ksv (HSA fluorescence quenching)” value [1] was 5.67e+06 M⁻¹ and the “double-strand plasmid damage” value (pBR322 plasmid DNA) was “not presumably capable of double-strand plasmid damage”.
For `CCn1cc(C(=O)O)c(=O)c2cc(F)c(N3CCN(CP(c4ccccc4)c4ccccc4)C(C)C3)c(F)c21` (stereo not drawn) [PLm], the “Ksv (apo-Tf fluorescence quenching)” value (apo-transferrin (apo-Tf)) was 152 M⁻¹ and the “Ksv (HSA fluorescence quenching)” value [1] was 5.3 M⁻¹.
In the case of `CCn1cc(C(=O)O)c(=O)c2cc(F)c(N3CCN(CP(c4ccccc4)c4ccccc4)CC3)cc21` [PNr], the “Ksv (apo-Tf fluorescence quenching)” value (apo-transferrin (apo-Tf)) was 45.6 M⁻¹.
In the case of `CC1CN(c2c(F)c(N)c3c(=O)c(C(=O)O)cn(C4CC4)c3c2F)CC(C)N1CP(c1ccccc1)c1ccccc1` (stereo not drawn) [PSf], the “Ksv (apo-Tf fluorescence quenching)” value (apo-transferrin (apo-Tf)) was 11000 M⁻¹.
